# Entries after “also recorded” stand apart in the source; their conditions may differ.
# Key:
# [1] = tested on: human airway smooth muscle preparations; conditions: read-out: IC50 in relaxing human airway smooth muscle preparations; cited from earlier work
# [2] = cited from earlier work
# [3] = tested on: human CFTR protein bearing the ΔF508 mutation; test: Western blot of CFTR in CFPAC-1 cells treated with GSNO; assay type: cell-based
# Protocol: FIG. 1. […] Human pancreatic adenocarcinoma cells from a patient homozygous for ΔF508 (CFPAC-1) were grown to confluence and treated with medium alone (control) or 500 nM, 1 μM, 5 μM, 10 μM or 100 mM GSNO for 6 hours. The cells were harvested, lysed, resuspended in NP40 buffer and underwent Western Blot analysis with anti-CFTR antibody. […] Increased expression of the immature non-glycosylated protein (140 kDa) reflects decreased degradation of the immature protein in the endoplasma retimulum The appearance of a band at 180 kDa (mature protein) reflects maturation of the protein in the endoplasmic reticulum, an expression of a form capable of being expressed on the cell surface representative of three experiments. The full maturing of the protein accommodates for the ΔF508 mutation.
# patients with CF = test: Double-blind, placebo-controlled nebulized GSNO study in patients with CF; assay type: in vivo, human
# Protocol: FIG. 3. […] In a double-blind, placebo-controlled study, patients with CF received GSNO in 10 mM phosphate buffered saline (PBS) (n=9) or 10 mM PBS alone (n=11) by nebulizer. The two groups were matched with respect to age, vital signs, oxygen saturation, vital capacity, FEV1, and FEF25-75(p=7). Change in oxygen saturation from pretreatment baseline is recorded as a function of time. Results are shown in FIG. 3 where the continuous line represents the GSNO group and the line composed of dashes represents the PBS alone group. […] FIG. 4. Inhaled S-nitrosoglutathione cases increased expired nitric oxide (NO) concentration in CF. Data presented represent the two groups described in FIG. 3, but with respect to expired nitric oxide concentration (measured off-line with chemiluminescence in accordance with American Thoracic Society guidelines). Results are shown in FIG. 4 where the continuous line represents the GSNO group and the line composed of dashes represents the PBS alone group. […] Note that the change at 30 minutes is less pronounced than at 5 minutes, though improvement in oxygenation is as dramatic at 30 minutes as at 5 minutes. […] These S-nitrosylation reactions may be critically important to smooth muscle relaxation, antimicrobial effects and modification of ion channel function. FIGS. 5A, 5B, 5C, 5D, 5E and 5F. Inhaled S-nitrosoglutathione is well tolerated in CF patients.
# [4] = tested on: ubiquitin proteosome pathway; test: Inhibition of the ubiquitin proteosome pathway (preliminary evidence); conditions: stabilizes expression of hypoxy inducible factor 1
# Source text: Cystic fibrosis is caused by mutations in a membrane-associated chloride channel, the cystic fibrosis transmembrane regulatory protein (CFTR). The most common mutation, accounting for 70% of alleles, is a 3 base pair (single amino acid) deletion at the 508 position on the first ATP binding domain, the (ΔF508) mutation. This is referred to as a class II mutation in that intact and potentially functional protein is degraded in the endoplasm reticulum because of a small folding error. It is known that his degradation can be bypassed in vitro by hypothermia and by treatment with compounds,such as glycerol and phenylbutyrate. These treatments result in functional expression of (ΔF508) CFTR on the cell surface. It has recently been proposed that CFTR degradation in the endoplasmic reticulum (ER) is mediated by the ubiquitin-proteasome system.
# [5] = cells homozygous to the ΔF508 mutation, 100 μM GSNO
smiles,measurement,setting,value
"N[C@@H](CCC(=O)N[C@@H](CSN=O)C(=O)NCC(=O)O)C(=O)O [GSNO, S-nitrosoglutathione]",IC50,[1],~10 µM
same,stability at acid pH,[2],stable at acid pH
same,"stabilization and maturation of ΔF508 CFTR protein (Western blot, 140/160/180 kDa bands)","[3]; CFPAC-1 cells, 500 nM, 1 μM, 5 μM, 10 μM or 100 mM GSNO for 6 hours",stabilizes and allows maturation of human CFTR protein bearing the ΔF508 mutation
same,expression of CFTR,[3]; [5],increases the expression of CFTR
same,maturation of CFTR,[3]; [5],increases the maturation of CFTR
same,"tolerability (vital signs, lung function, systemic effects)","patients with CF; CF patients, inhaled 0.05 ml/kg of 10 mM GSNO",no acute change in vital signs or lung function was observed; also recorded: well tolerated in CF and has no adverse systemic affects
same,change in oxygen saturation from pretreatment baseline,"patients with CF; inhalation of 0.05 ml/kg of 10 mM GSNO by nebulizer vs PBS alone, p<0.001 by ANOVA",greater improvement in oxygen saturation than those in the PBS group; also recorded: improved oxygenation
same,inhibition of ubiquitin proteosome pathway,[4],inhibits the ubiquitin proteosome pathway

# — patent US6723703B2, “Therapeutic use of aerosolized S-nitrosoglutathione in cystic fibrosis” (Duke University, priority 2000, dated 2004)
